Some test systems named below: PC-3; HCT-15; HOP-62; COLO 205; SW-620; LOX IMVI; NCI-H460; T47D; SF-268; ACHN; IGROV-1; SNB-75; UACC-257; TK-10; CAKI-1; U-251; OVCAR-8; OVCAR-5; KM12.
Holding throughout (assay): inhibition of tumour cell growth, NCI panel, 48 h

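96-well plates; 48 h exposure; 5 concentrations. Endpoints by linear interpolation between flanking doses. Not reached: highest tested concentration assigned. At the GI50, growth is halved.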 Activity calls are given as the source filed them. No stated cut-off is given here; in the data, active = GI50 up to about 1.1 µM and inactive = higher.

As to `CN1CN(c2ccccc2)C2(CCN(C(=O)OC(C)(C)C)CC2)C1=O`, the GI50 with PC-3 is > 100 µM (inactive); in the experiment with HCT-15, over 100 µM; in the experiment with HOP-62 it was > 100 µM (inactive); in the experiment with COLO 205, > 100 µM (inactive); with SW-620, > 100 µM (inactive); in the experiment with LOX IMVI, > 100 µM (inactive). Further, the GI50 with NCI-H460, in the experiment on T47D, in the experiment on SF-268, in the experiment with ACHN, in the experiment with IGROV-1 and in the experiment with SNB-75 was > 100 µM (inactive) each time. Also, the GI50 with UACC-257, with TK-10, with CAKI-1, in the experiment with U-251, in the experiment with OVCAR-8 and with OVCAR-5 was > 100 µM (inactive) throughout. The GI50 in the experiment on KM12 was > 100 µM (inactive).

For the molecule `O=C1CC(n2cccc2)c2c(Br)sc(Br)c21` (centres undefined), the GI50 in the experiment with PC-3 was 16.4 µM (inactive); in the experiment on HCT-15 it was 12.8 µM; in the experiment with HOP-62, 22.1 µM (inactive); in the experiment with COLO 205 it was 16.9 µM (inactive); in the experiment on SW-620, 12.4 µM (inactive); in the experiment on LOX IMVI it was 6.73 µM (inactive). The GI50 in the experiment on NCI-H460 was 18 µM (inactive); with T47D, 18.1 µM (inactive); in the experiment with SF-268 it was 14.8 µM (inactive); in the experiment on ACHN, 17.5 µM (inactive); in the experiment with IGROV-1, 16.2 µM (inactive); in the experiment with SNB-75, 18.7 µM (inactive). Also, the GI50 with UACC-257 was 15.1 µM (inactive); in the experiment with TK-10 it was 19.2 µM (inactive); in the experiment with CAKI-1, 6.49 µM (inactive); in the experiment with U-251, 15.2 µM (inactive); in the experiment with OVCAR-8 it was 15.2 µM (inactive); in the experiment on OVCAR-5, 17.7 µM (inactive). The GI50 with KM12 is 7.23 µM (inactive).

Regarding `C[C@H](CO)C1=CC(C#C[Si](C)(C)C)N(C(=O)Oc2ccccc2)c2ccccc21` (some centres undefined), the GI50 in the experiment with PC-3 is 10.2 µM (inactive); in the experiment on HCT-15 it was 3.06 µM; with HOP-62 it was 6.05 µM (inactive); in the experiment on COLO 205, 5.6 µM (inactive); with SW-620, 12.4 µM (inactive); with LOX IMVI it was 15.7 µM (inactive). In addition, the GI50 in the experiment on NCI-H460 was 9.25 µM (inactive); in the experiment on T47D, 15.9 µM (inactive); in the experiment with SF-268 it was 13.3 µM (inactive); with ACHN it was 13.8 µM (inactive); with IGROV-1, 12.4 µM (inactive); in the experiment on SNB-75, 6.5 µM (inactive). Further, the GI50 with UACC-257 was 13.6 µM (inactive); with TK-10, 17 µM (inactive); in the experiment with CAKI-1 it was 14.1 µM (inactive); in the experiment on U-251, 14.6 µM (inactive); with OVCAR-8 it was 17.7 µM (inactive); in the experiment with OVCAR-5, 15 µM (inactive). The GI50 in the experiment with KM12 was 4.93 µM (inactive).

`CC1=C(C)CC(C#N)(C#N)C(C#N)(C#N)C1`: the GI50 with PC-3 was > 6.35 µM (inactive); in the experiment on HCT-15 it was over 10 µM; in the experiment on HOP-62, > 10 µM (inactive); in the experiment with COLO 205, 4.21 µM (inactive); with SW-620 it was 2.31 µM (inactive); in the experiment on LOX IMVI it was > 10 µM (inactive). Moreover, the GI50 is > 10 µM (inactive) in the experiment on NCI-H460; > 5.71 µM (inactive) in the experiment with T47D; > 10 µM (inactive) with SF-268; > 8.79 µM (inactive) in the experiment with ACHN; > 3.83 µM (inactive) with IGROV-1; > 10 µM (inactive) in the experiment on SNB-75. Moreover, the GI50 was > 10 µM (inactive) with UACC-257; > 5.05 µM (inactive) in the experiment with TK-10; > 10 µM (inactive) in the experiment with CAKI-1; > 10 µM (inactive) with U-251; > 5.45 µM (inactive) in the experiment on OVCAR-8; > 10 µM (inactive) with OVCAR-5. In the experiment with KM12, the GI50 is > 10 µM (inactive).

In the case of `CC(C)COC(=O)OC(=O)c1ccc(N(C)Cc2cnc3nc(N)nc(N)c3n2)cc1`, the GI50 was 2.47 µM (inactive) in the experiment with PC-3; 1.75 µM in the experiment with HCT-15; 59.7 µM (inactive) in the experiment with HOP-62; > 75.3 µM (inactive) in the experiment with COLO 205; 3.86 µM (inactive) with SW-620; 1.41 µM (inactive) in the experiment on LOX IMVI. Besides, the GI50 in the experiment with NCI-H460 is 5.64 µM (inactive); with T47D, > 100 µM (inactive); with SF-268 it was 9.89 µM (inactive); in the experiment with ACHN, 11.4 µM (inactive); in the experiment on IGROV-1, 8.3 µM (inactive); with SNB-75 it was > 38.2 µM (inactive). For the same molecule, the GI50 with UACC-257 was 47.3 µM (inactive); with TK-10, > 88.1 µM (inactive); in the experiment with CAKI-1 it was > 32.1 µM (inactive); in the experiment on U-251, > 29.7 µM (inactive); in the experiment on OVCAR-8, 6.12 µM (inactive); in the experiment on OVCAR-5 it was > 100 µM (inactive). In the experiment with KM12, the GI50 is 26.5 µM (inactive).

On to `CC(N1CCOCC1)C(O)(c1ccccc1)c1ccccn1` (centres undefined), for which the GI50 with PC-3 was > 100 µM (inactive); in the experiment with HCT-15, over 100 µM; in the experiment with HOP-62 it was > 100 µM (inactive); with COLO 205 it was > 100 µM (inactive); in the experiment with SW-620 it was > 100 µM (inactive); with LOX IMVI, > 100 µM (inactive). Moreover, the GI50 in the experiment on NCI-H460 is > 100 µM (inactive); with T47D, > 100 µM (inactive); in the experiment on SF-268 it was > 100 µM (inactive); in the experiment on ACHN it was 52.8 µM (inactive); in the experiment on IGROV-1 it was > 100 µM (inactive); in the experiment with SNB-75, > 100 µM (inactive). Besides, the GI50 with UACC-257, in the experiment on TK-10, with CAKI-1, in the experiment with U-251, in the experiment on OVCAR-8 and in the experiment on OVCAR-5 was > 100 µM (inactive) throughout. For the same molecule, in the experiment with KM12, the GI50 is > 100 µM (inactive).

Turning to `COC(=O)C1=C(O)C(C(=O)OC)[C@]2(O)[C@H](C(=O)OC)[C@H]1C[C@@H](c1ccccc1OC)[C@H]2C(=O)OC` (some centres undefined), the GI50 in the experiment with PC-3 is 6.03 µM (inactive); in the experiment with HCT-15, 3.31 µM; in the experiment on HOP-62 it was 12.3 µM (inactive); with COLO 205, 4.55 µM (inactive); with SW-620, 4.25 µM (inactive); in the experiment on LOX IMVI, 2.79 µM (inactive). In addition, the GI50 with NCI-H460 was 4.51 µM (inactive); with T47D, 10.4 µM (inactive); with SF-268, 4.53 µM (inactive); with ACHN it was 6.25 µM (inactive); in the experiment with IGROV-1, 3.33 µM (inactive); in the experiment with SNB-75, 10.7 µM (inactive). Besides, the GI50 in the experiment on UACC-257 is 9.64 µM (inactive); in the experiment with TK-10 it was 14.1 µM (inactive); in the experiment on CAKI-1, 3.99 µM (inactive); with U-251, 6.56 µM (inactive); with OVCAR-8, 2.86 µM (inactive); with OVCAR-5 it was 6.08 µM (inactive). Besides, in the experiment with KM12, the GI50 is 6.14 µM (inactive).

`CCOP(=O)(C[S+](C)[O-])O[C@@H]1C[C@H](C)CC[C@H]1C(C)C` (some centres undefined): the GI50 in the experiment on PC-3 was 6.61 µM (inactive); in the experiment with HCT-15, 2.71 µM; in the experiment on HOP-62, 5.53 µM (inactive); in the experiment with COLO 205, 6.19 µM (inactive); with SW-620, 3.72 µM (inactive); in the experiment on LOX IMVI, 1.77 µM (inactive). The GI50 in the experiment on NCI-H460 is 4.5 µM (inactive); in the experiment on T47D, 4.6 µM (inactive); in the experiment on SF-268 it was 6.44 µM (inactive); in the experiment on ACHN, 4.43 µM (inactive); with IGROV-1, 3.25 µM (inactive); in the experiment on SNB-75, 7.28 µM (inactive). Besides, the GI50 in the experiment on UACC-257 was 6.4 µM (inactive); in the experiment with TK-10 it was 3.63 µM (inactive); in the experiment with CAKI-1 it was 2.88 µM (inactive); in the experiment with U-251 it was 4.59 µM (inactive); in the experiment with OVCAR-8, 4.48 µM (inactive); with OVCAR-5, 4.28 µM (inactive). Besides, the GI50 in the experiment on KM12 is 3.14 µM (inactive).

With `COc1c(C(CC(C)C)OC(C)=O)ccc2c1C(=O)OCc1cc(C)cc(O)c1O2` (centres undefined), the GI50 in the experiment with PC-3 is 9.73 µM (inactive); in the experiment with HCT-15, 10.1 µM; in the experiment with HOP-62, 18.7 µM (inactive); with COLO 205 it was 17.6 µM (inactive); with SW-620, 17.5 µM (inactive); in the experiment with LOX IMVI, 12.6 µM (inactive). Also, the GI50 in the experiment on NCI-H460 was 12.6 µM (inactive); with T47D, 11.3 µM (inactive); in the experiment with SF-268 it was 14.3 µM (inactive); in the experiment on ACHN it was 10.5 µM (inactive); in the experiment with IGROV-1, 16.6 µM (inactive); in the experiment with SNB-75 it was 19.2 µM (inactive). Further, the GI50 was 8.47 µM (inactive) with UACC-257; 17.7 µM (inactive) in the experiment with TK-10; 16.1 µM (inactive) with CAKI-1; 14.9 µM (inactive) with U-251; 16.7 µM (inactive) in the experiment with OVCAR-8; 15.1 µM (inactive) in the experiment on OVCAR-5. Also, the GI50 in the experiment with KM12 was 19.3 µM (inactive).

On to `CN1CSC(=S)N(c2c3ccccc3nc3ccc(Br)cc23)C1`, for which the GI50 in the experiment with PC-3 was 8.77 µM (inactive); in the experiment on HCT-15, 6.4 µM; in the experiment on HOP-62, 7.87 µM (inactive); in the experiment on COLO 205 it was 6.43 µM (inactive); in the experiment on SW-620, 3.89 µM (inactive); with LOX IMVI, 7.83 µM (inactive). The GI50 was 3.83 µM (inactive) in the experiment with NCI-H460; 11.6 µM (inactive) with T47D; 9.64 µM (inactive) with SF-268; 6.59 µM (inactive) in the experiment with ACHN; 10.8 µM (inactive) in the experiment with IGROV-1; 8.99 µM (inactive) in the experiment on SNB-75. For the same molecule, the GI50 was 12.1 µM (inactive) in the experiment on UACC-257; 9.51 µM (inactive) in the experiment with TK-10; 5.41 µM (inactive) in the experiment on CAKI-1; 7.13 µM (inactive) with U-251; 7.93 µM (inactive) with OVCAR-8; 13.7 µM (inactive) with OVCAR-5. In addition, the GI50 in the experiment with KM12 is 7.11 µM (inactive).

Regarding `Cc1nc2c(sc3nc4c(cc32)CCC4)c(=O)o1`, the GI50 with PC-3 was > 100 µM (inactive); with HCT-15, 34.4 µM; with HOP-62, > 100 µM (inactive); in the experiment on COLO 205 it was 54.6 µM (inactive); in the experiment with SW-620, > 59.7 µM (inactive); with LOX IMVI it was 41.4 µM (inactive). Further, the GI50 with NCI-H460 was > 59.8 µM (inactive); in the experiment on T47D it was > 78 µM (inactive); with SF-268, 49.7 µM (inactive); in the experiment with ACHN, > 66.7 µM (inactive); in the experiment on IGROV-1, 20.6 µM (inactive); in the experiment with SNB-75, > 68.4 µM (inactive). The GI50 with UACC-257 is 89.1 µM (inactive); in the experiment with TK-10 it was > 64.6 µM (inactive); with CAKI-1 it was > 100 µM (inactive); in the experiment with U-251 it was > 83.2 µM (inactive); in the experiment on OVCAR-8, 36.1 µM (inactive); in the experiment on OVCAR-5 it was > 95.1 µM (inactive). The GI50 in the experiment with KM12 was > 87.1 µM (inactive).

These data come from ChEMBL document CHEMBL1201862, “PubChem BioAssay data set” (2004).
